# Laboratory results from patent US20210353648A1, “GRAPIPRANT UNIT DOSAGE FORMS” (Arrys Therapeutics, Inc., priority 2018, published 2021).
# Assay: Phase 1 multiple ascending dose study of grapiprant tablets: serum pharmacokinetics
# Type: in vivo, human
# Conditions: for Rac (Day 14/Day 1) / half-life / Cmax / AUC(0-t): mean; for increase of mean systemic exposure (AUC and Cmax) with dose: 14 days; for half-life / Cmax / AUC(0-t) / Tmax: human, oral, serum; for Tmax: median
# From the text: Serum pharmacokinetic parameters can be computed using WinNonlin Version 3.2 (Pharsight®, Mountain View, Calif.) using standard non-compartmental methods. As used herein, the term “Cmax” refers to the maximum observed serum concentration of grapiprant estimated directly from concentration versus time data. As used herein, the term “Tmax” refers to the time of the first occurrence of Cmax. As used herein, the term “AUC(0-tlast)” refers to the area under the serum concentration vs. time curve from time 0 to Tlast (the time of the last quantifiable concentration estimated using the linear/log trapezoidal approximation). When data permitted, the terminal elimination rate constant (kel) was estimated using linear least-square regression analysis of the serum concentration-time data obtained during the terminal log-linear phase. As used herein, the term “AUC(0-inf)” refers to AUC(0-tlast) extrapolated to infinity, which is calculated as the sum of AUC(0-tlast) and Cest/kel, wherein Cest is the predicted plasma concentration obtained from the log linear regression analysis at the last quantifiable time point. As used herein, the term “t½” refers to terminal phase half-life calculated as ln(2)/kel. As used herein, the term “AUC(last-inf)” refers to the area under the serum concentration versus time curve from Tlast to infinity, which is estimated as Cpest/kel, wherein Cpest represented the estimated concentration at time Tlast based on the aforementioned regression analysis. As used herein, the term “AUCτ” refers to the area under the serum concentration versus time curve over the dosing interval. As used herein, the term “Rac” refers to the accumulation ratio of grapiprant in the serum, which is calculated as a measure of drug accumulation at steady state compared to Day 1. Rac for the 14 day oral administration described herein is calculated using the equation: Rac=(Day 14 AUCτ/Day 1 AUCτ). Rac for the 17 day oral administration described herein is calculated using the equation: Rac=(Day 17 AUCτ/Day 1 AUCτ). Day 17 is used as steady state in the elderly group of subjects, which is Day 14 of the multiple dosing period for these subjects.
# As used herein, the terms “cohort 1”, “cohort 2”, and “cohort 3” refer to studies where grapiprant tablets are administered at dosage levels of 50 mg, 150 mg, and 300 mg, respectively, in healthy adult subjects with a 14 day oral administration regimen as follows: one dose in the morning in a fasting state on day 1; twice daily (BID, approximately every 12 hours) on days 2 through 13: one dose in a fasting state in the morning, and one dose in the evening on an empty stomach; and one dose in the morning in a fasting state on day 14.
# As used herein, the term “cohort 5” and/or “cohort 6” refers to a study where grapiprant tablets are administered at a dosage level of 250 mg in elderly subjects with minor renal impairment with a 17 day oral administration regimen as follows: one dose in the morning in a fasting state on day 1; twice daily (BID, approximately every 12 hours) on days 4 through 16: one dose in a fasting state in the morning, and one dose in the evening on an empty stomach; and one dose in the morning in a fasting state on day 17.
# Dosing and Duration: In Cohorts 1-3, study medication was administered once daily in the morning on Days 1 and 14, and twice daily (BID, approximately every 12 hours) on Days 2 through 13. In Cohorts 5 and 6, study medication was administered once daily in the morning on Day 1, BID on Days […] through 16, and once in the morning on Day 17. In all cohorts dosing was to be in the fasting state for the morning dose and on an “empty stomach” for the evening dose.
# Pharmacokinetic Evaluations: Serial blood samples for serum PK evaluations of grapiprant began prior to dosing on Day 1 and continued until 48 hours following Day 14 dosing (Cohorts 1-3) or until 24 hours following Day 17 dosing (Cohorts 5 and 6). […]
# [1] = 50 mg, 50 mg BID tablets, Day 1, healthy adults
# [2] = 50 mg, 50 mg BID tablets, Day 14, healthy adults
# [3] = 150 mg, 150 mg BID tablets, Day 1, healthy adults
# [4] = 150 mg, 150 mg BID tablets, Day 14, healthy adults
# [5] = 250 mg, 250 mg BID tablets, Day 1, elderly with mild renal impairment
# [6] = 250 mg, 250 mg BID tablets, Day 17, elderly with mild renal impairment
# [7] = 300 mg, 300 mg BID tablets, Day 1, healthy adults
# [8] = 300 mg, 300 mg BID tablets, Day 14, healthy adults
compound,measurement,setting,value
"CCc1nc2c(C)nc(C)cc2n1-c1ccc(CCNC(=O)NS(=O)(=O)c2ccc(C)cc2)cc1 [Grapiprant, N-((4-(2-ethyl-4,6-dimethyl-1H-imidazo[4,5-c]pyridin-1-yl)phenethyl)carbamoyl)-4-methylbenzenesulfonamide]",Rac (Day 14/Day 1),"50 mg BID tablets, Day 14 AUCT/Day 1 AUCT, healthy adults",1.13
same,Rac (Day 14/Day 1),"150 mg BID tablets, Day 14 AUCT/Day 1 AUCT, healthy adults",1.20
same,Rac (Day 14/Day 1),"250 mg BID tablets, Day 17 AUCT/Day 1 AUCT, elderly with mild renal impairment",1.54
same,mean exposure compared with the 300 mg BID healthy adult group,"250 mg BID, elderly subjects with mild renal impairment",slightly greater
same,Rac (Day 14/Day 1),"300 mg BID tablets, Day 14 AUCT/Day 1 AUCT, healthy adults",1.33
same,increase of mean systemic exposure (AUC and Cmax) with dose,"between 50 and 150 mg BID, tablets, healthy adults",approximately dose proportional
same,increase of mean exposures,"dose increased 2-fold from 150 mg BID to 300 mg BID, healthy adults",approximately 3 fold
same,increase of mean systemic exposure (AUC and Cmax) with dose,"dose increased from 150 mg BID to 300 mg BID, healthy adults",greater than dose proportional increase
same,half-life,"50 mg BID tablets, Day 14, healthy adults",6.47 h
same,half-life,"150 mg BID tablets, Day 14, healthy adults",9.71 h
same,half-life,"250 mg BID tablets, Day 1, elderly with mild renal impairment",8.63 h
same,half-life,"300 mg BID tablets, Day 14, healthy adults",8.76 h
same,Cmax,"50 mg, 50 mg BID tablets, Day 1 (n = 9), healthy adults",578 ng/mL
same,AUC(0-t),[1],3150 ng·h/mL
same,Tmax,[1],1.5 h
same,Cmax,"50 mg, 50 mg BID tablets, Day 14 (n = 8), healthy adults",611 ng/mL
same,AUC(0-t),[2],3370 ng·h/mL
same,Tmax,[2],1.25 h
same,Cmax,"150 mg, 150 mg BID tablets, Day 1 (n = 9), healthy adults",2150 ng/mL
same,AUC(0-t),[3],8970 ng·h/mL
same,Tmax,[3],1.5 h
same,Cmax,"150 mg, 150 mg BID tablets, Day 14 (n = 9), healthy adults",2670 ng/mL
same,AUC(0-t),[4],10300 ng·h/mL
same,Tmax,[4],1.5 h
same,Cmax,"250 mg, 250 mg BID tablets, Day 1 (n = 15), elderly with mild renal impairment",10300 ng/mL
same,AUC(0-t),[5],30100 ng·h/mL
same,Tmax,[5],1 h
same,Cmax,"250 mg, 250 mg BID tablets, Day 17 (n = 14), elderly with mild renal impairment",12300 ng/mL
same,AUC(0-t),[6],40200 ng·h/mL
same,Tmax,[6],1 h
same,Cmax,"300 mg, 300 mg BID tablets, Day 1 (n = 9), healthy adults",8240 ng/mL
same,AUC(0-t),[7],24900 ng·h/mL
same,Tmax,[7],1.5 h
same,Cmax,"300 mg, 300 mg BID tablets, Day 14 (n = 9), healthy adults",10400 ng/mL
same,AUC(0-t),[8],32300 ng·h/mL
same,Tmax,[8],1 h
